From PubChem BioAssay (NCI) come the findings set out here.

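Assay format: 96-well plates, 48-hour exposure. TGI denotes the concentration required for complete inhibition of growth.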

The test has as its system P388 leukemia. In words: NCI tumour cell line growth inhibition, 48 h.

Take `COc1cc(C2c3cc4c(cc3[C@@H](Nc3cccc(O)c3)C3COC(=O)[C@H]23)OCO4)cc(OC)c1O` (stereo partly specified): the TGI amounted to 507 nM.
